# Legend:
# [1] = system: reconstituted human epidermis Epi-200 EpiDerm™; experiment: Release of IL-1α in the culture medium (ELISA); settings: 18-hour treatment; Tukey Kramer Multiple Comparisons Test
# Experimental: Tissue used: EPI-200-SIT EpiDerm™
# Culture medium: EPI-100-MM-HCF-60
# (§1) Incubation conditions: +37° C. in a 5% CO2 atmosphere
# (§2) Treatment with the sample: • continuous contact and incubation for 18 hours (single) • continuous contact and incubation for 7 days (double)
# Controls Performed for the First Evaluation (18 Hours): • Negative control after 18 hours: inserts not treated • Positive control: inserts treated with 0.5% SDS (Sodium Dodecylsulphate) in sterile water during 18 hours of incubation;
# Controls Performed for the 7-Day Evaluation: • Negative control: inserts not treated with the sample and kept for 7 days in the same incubation conditions as those treated with the sample.
# Evaluation of the Release of IL-1α in the Culture Medium:
# Evaluation in the culture medium obtained after the period of incubation of the sample with EPI-200. The release is measured by means of specific ELISA.
# [2] = system: reconstituted human epidermis Epi-200 EpiDerm™; experiment: Release of lactate dehydrogenase (LDH) in the culture medium; settings: 18-hour treatment; Tukey Kramer Multiple Comparisons Test
# Text: Further information for better defining the irritation potential was obtained from subsequent measurement of the following parameters: • evaluation of the release, in the culture medium, of the lactate dehydrogenase (LDH), a cytoplasmic enzyme, release of which indicates loss of integrity of the cellular membrane; • evaluation of the release, in the culture medium, of pro-inflammatory cytokine by means of ELISA (Enzyme Linked Immunosorbent Assay).
# Tissue used: EPI-200-SIT EpiDerm™
# Culture medium: EPI-100-MM-HCF-60
# as §1, §2
# (§3) Application was carried out by applying about 1 cm^2 of sample (i.e. of the sheet according to the invention obtained as per the example given above) per insert.
# (§4) Controls Performed for the First Evaluation (18 Hours): • Negative control after 18 hours: inserts not treated • Positive control: inserts treated with 0.5% SDS (Sodium Dodecylsulphate) in sterile water during 18 hours of incubation; […]
# Evaluation in the culture medium obtained after the incubation period of the sample with the epidermis model. The culture medium is incubated with a specific reagent so as to allow quantitive determination of the lactate dehydrogenase at 490 nm.
# [3] = system: reconstituted human epidermis Epi-200 EpiDerm™; experiment: Evaluation of the cellular vitality by MTT assay (EpiDerm Skin Irritation Test EPI-200-SIT)
# Experimental: The tolerability of the sheets according to the invention was evaluated by means of an in-vitro assay on models of reconstituted epidermis for evaluation of the cumulative irritation.
# The assay in question was based on the In vitro Epiderm™ Skin Irritation Test (EPI-200-SIT) developed by the MatTek Corporation, which uses the model of reconstituted human epidermis Epi-200 EpiDerm™.
# The assay consists in topical application of the material under testing on the reconstituted epidermis for contact times equal to or greater than 18 hours. The irritation potential is determined by means of evaluation of the cellular vitality using the MTT assay.
# Conditions for Conducting the Assay for Evaluation of the Cellular Vitality
# Tissue used: EPI-200-SIT EpiDerm™
# Culture medium: EPI-100-MM-HCF-60
# as §1, §2, §3, §4
structure (smiles),measurement,setting,value
"CCCCCCCCCCCCOS(=O)(=O)[O-].[Na+] [Positive control, Sodium Dodecylsulphate]","Release of IL-1α, statistical comparison in relation to the negative control",[1],*** (*** p < 0.001 extremely significant variation)
same,"Release of LDH, statistical comparison in relation to the negative control",[2],*** (*** p < 0.001 extremely significant variation)
same,Average value of OD ± SD (MTT),[3]; 18-hour continuous contact and incubation,0.185 ± 0.004
same,Average value of the % vitality (MTT),"[3]; 18-hour treatment, relative to negative control = 100%",8.40 ± 0.17%
